Source: US12441691B2 (Cytokinetics, Inc., priority 2020, dated 2025)

Tested on: rabbit skeletal myofibrils (fast skeletal myofibrils)
Test: Activation of fast skeletal myofibrils (PUMA assay, AC1.4)
Type: biochemical
Settings: calcium at pCa25, AC1.4 = concentration at which the compound increased the enzymatic activity
Procedure, shortened: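 Detergent-washed rabbit psoas myofibrils (~90% fast fibers), calcium set to give 25% of maximal rate (pCa25). ATPase followed by pyruvate kinase/lactate dehydrogenase-coupled NADH oxidation, absorbance at 340 nm. PM12 buffer: 12 mM PIPES, 2 mM MgCl2, 1 mM DTT, pH 6.8.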

SMILES	AC1.4
CC[C@H](C)[C@H]1C(=O)Nc2ccccc2CN1C(=O)N1CC(N2CCN(C)CC2)C1 [Compound 265, (S)-3-((S)-sec-butyl)-4-(3-(4-methylpiperazin-1-yl)azetidine-1-carbonyl)-1,3,4,5-tetrahydro-2H-benzo[e][1,4]diazepin-2-one]	0.70 µM
CC[C@H](C)[C@H]1C(=O)Nc2ccccc2CN1C(=O)N1CC(N2CCOCC2)C1 [Compound 266, (S)-3-((S)-sec-butyl)-4-(3-morpholinoazetidine-1-carbonyl)-1,3,4,5-tetrahydro-2H-benzo[e][1,4]diazepin-2-one]	2.47 µM
CC[C@H](C)[C@H]1C(=O)Nc2ccccc2CN1C(=O)N1CC(N2CCN(CCO)CC2)C1 [Compound 267, (S)-3-((S)-sec-butyl)-4-(3-(4-(2-hydroxyethyl)piperazin-1-yl)azetidine-1-carbonyl)-1,3,4,5-tetrahydro-2H-benzo[e][1,4]diazepin-2-one]	0.95 µM
CC[C@H](C)[C@H]1C(=O)Nc2ccccc2CN1C(=O)N1CC(N2CCN(c3ccccn3)CC2)C1 [Compound 268, (S)-3-((S)-sec-butyl)-4-(3-(4-(pyridin-2-yl)piperazin-1-yl)azetidine-1-carbonyl)-1,3,4,5-tetrahydro-2H-benzo[e][1,4]diazepin-2-one]	1.03 µM
CC[C@H](C)[C@H]1C(=O)Nc2ccccc2CN1C(=O)N1CC(OCC(=O)N(C)C)C1 [Compound 269, 2-((1-((S)-3-((S)-sec-butyl)-2-oxo-2,3,4,5-tetrahydro-1H-benzo[e][1,4]diazepine-4-carbonyl)azetidin-3-yl)oxy)-N,N-dimethylacetamide]	0.92 µM
CC[C@H](C)[C@H]1C(=O)Nc2ccccc2CN1C(=O)N1CC(OCC(=O)NC)C1 [Compound 270, 2-((1-((S)-3-((S)-sec-butyl)-2-oxo-2,3,4,5-tetrahydro-1H-benzo[e][1,4]diazepine-4-carbonyl)azetidin-3-yl)oxy)-N-methylacetamide]	0.94 µM
CC[C@H](C)[C@H]1C(=O)Nc2ccccc2CN1C(=O)N1CC(C)(N)C1 [Compound 271, (S)-4-(3-amino-3-methylazetidine-1-carbonyl)-3-((S)-sec-butyl)-1,3,4,5-tetrahydro-2H-benzo[e][1,4]diazepin-2-one]	0.95 µM
CC[C@H](C)[C@H]1C(=O)Nc2ccccc2CN1C(=O)N1C2COCC1C2 [Compound 272, (3S)-4-(3-oxa-6-azabicyclo[3.1.1]heptane-6-carbonyl)-3-((S)-sec-butyl)-1,3,4,5-tetrahydro-2H-benzo[e][1,4]diazepin-2-one]	2.62 µM
CC[C@H](C)[C@H]1C(=O)Nc2ccccc2CN1C(=O)NC1(C#N)CC1 [Compound 273, (S)-3-((S)-sec-butyl)-N-(1-cyanocyclopropyl)-2-oxo-1,2,3,5-tetrahydro-4H-benzo[e][1,4]diazepine-4-carboxamide]	3.02 µM
CC[C@H](C)[C@H]1C(=O)Nc2ccccc2CN1C(=O)Nc1ccc(=O)n(CC(F)F)n1 [Compound 274, (S)-3-((S)-sec-butyl)-N-(1-(2,2-difluoroethyl)-6-oxo-1,6-dihydropyridazin-3-yl)-2-oxo-1,2,3,5-tetrahydro-4H-benzo[e][1,4]diazepine-4-carboxamide]	0.06 µM
CC[C@H](C)[C@H]1C(=O)Nc2ccccc2CN1C(=O)Nc1ccc(=O)n(CC(F)(F)F)n1 [Compound 275, (S)-3-((S)-sec-butyl)-2-oxo-N-(6-oxo-1-(2,2,2-trifluoroethyl)-1,6-dihydropyridazin-3-yl)-1,2,3,5-tetrahydro-4H-benzo[e][1,4]diazepine-4-carboxamide]	0.06 µM
CC[C@H](C)[C@H]1C(=O)Nc2ccccc2CN1C(=O)NCc1ccccc1 [Compound 276, (S)-N-benzyl-3-((S)-sec-butyl)-2-oxo-1,2,3,5-tetrahydro-4H-benzo[e][1,4]diazepine-4-carboxamide]	0.24 µM
CC[C@H](C)[C@H]1C(=O)Nc2ccccc2CN1C(=O)Nc1cccc(F)c1 [Compound 277, (S)-3-((S)-sec-butyl)-N-(3-fluorophenyl)-2-oxo-1,2,3,5-tetrahydro-4H-benzo[e][1,4]diazepine-4-carboxamide]	0.08 µM
CC[C@H](C)[C@H]1C(=O)Nc2ccccc2CN1C(=O)Nc1cnc2[nH]ncc2c1 [Compound 278, (S)-3-((S)-sec-butyl)-2-oxo-N-(1H-pyrazolo[3,4-b]pyridin-5-yl)-1,2,3,5-tetrahydro-4H-benzo[e][1,4]diazepine-4-carboxamide]	0.05 µM
CC[C@H](C)[C@H]1C(=O)Nc2ccccc2CN1C(=O)N1CC[C@H](C(=O)OC)C1 [Compound 279, methyl (S)-1-((S)-3-((S)-sec-butyl)-2-oxo-2,3,4,5-tetrahydro-1H-benzo[e][1,4]diazepine-4-carbonyl)pyrrolidine-3-carboxylate]	1.46 µM
CC[C@H](C)[C@H]1C(=O)Nc2ccccc2CN1C(=O)N1CC[C@@H](O)C1 [Compound 280, (S)-3-((S)-sec-butyl)-4-((R)-3-hydroxypyrrolidine-1-carbonyl)-1,3,4,5-tetrahydro-2H-benzo[e][1,4]diazepin-2-one]	1.06 µM

SMILES	AC1.4
CC[C@H](C)[C@H]1C(=O)Nc2ccccc2CN1C(=O)N1CCN(CCc2ccccc2)CC1 [Compound 281, (S)-3-((S)-sec-butyl)-4-(4-phenethylpiperazine-1-carbonyl)-1,3,4,5-tetrahydro-2H-benzo[e][1,4]diazepin-2-one]	0.30 µM
CC[C@H](C)[C@H]1C(=O)Nc2ccccc2CN1C(=O)N1CC[C@H](O)C1 [Compound 282, (S)-3-((S)-sec-butyl)-4-((S)-3-hydroxypyrrolidine-1-carbonyl)-1,3,4,5-tetrahydro-2H-benzo[e][1,4]diazepin-2-one]	0.38 µM
CC[C@H](C)[C@H]1C(=O)Nc2ccccc2CN1C(=O)Nc1nnc(C)s1 [Compound 283, (S)-3-((S)-sec-butyl)-N-(5-methyl-1,3,4-thiadiazol-2-yl)-2-oxo-1,2,3,5-tetrahydro-4H-benzo[e][1,4]diazepine-4-carboxamide]	0.09 µM
CC[C@H](C)[C@H]1C(=O)Nc2ccccc2CN1C(=O)Nc1cccnc1CO [Compound 284, (S)-3-((S)-sec-butyl)-N-(2-(hydroxymethyl)pyridin-3-yl)-2-oxo-1,2,3,5-tetrahydro-4H-benzo[e][1,4]diazepine-4-carboxamide]	0.11 µM
CC[C@H](C)[C@H]1C(=O)Nc2ccccc2CN1C(=O)N1CC[C@@H](CO)C1 [Compound 285, (S)-3-((S)-sec-butyl)-4-((R)-3-(hydroxymethyl)pyrrolidine-1-carbonyl)-1,3,4,5-tetrahydro-2H-benzo[e][1,4]diazepin-2-one]	0.54 µM
CC[C@H](C)[C@H]1C(=O)Nc2ccccc2CN1C(=O)NCc1ccccc1C(N)=O [Compound 286]	0.30 µM
CC[C@H](C)[C@H]1C(=O)Nc2ccccc2CN1C(=O)N[C@H](C(N)=O)c1ccccc1 [Compound 287, (S)-N-((S)-2-amino-2-oxo-1-phenylethyl)-3-((S)-sec-butyl)-2-oxo-1,2,3,5-tetrahydro-4H-benzo[e][1,4]diazepine-4-carboxamide]	0.35 µM
CC[C@H](C)[C@H]1C(=O)Nc2ccccc2CN1C(=O)c1ccc(C(N)=O)cc1 [Compound 288, 4-((S)-3-((S)-sec-butyl)-2-oxo-2,3,4,5-tetrahydro-1H-benzo[e][1,4]diazepine-4-carbonyl)benzamide]	0.16 µM
CC[C@H](C)[C@H]1C(=O)Nc2ccccc2CN1C(=O)N1CC[C@H](C(=O)O)C1 [Compound 289, (S)-1-((S)-3-((S)-sec-butyl)-2-oxo-2,3,4,5-tetrahydro-1H-benzo[e][1,4]diazepine-4-carbonyl)pyrrolidine-3-carboxylic acid]	3.59 µM
CC[C@H](C)[C@H]1C(=O)Nc2ccccc2CN1C(=O)NC1CCN(C)CC1 [Compound 290, (S)-3-((S)-sec-butyl)-N-(1-methylpiperidin-4-yl)-2-oxo-1,2,3,5-tetrahydro-4H-benzo[e][1,4]diazepine-4-carboxamide]	0.15 µM
CC[C@H](C)[C@H]1C(=O)Nc2ccccc2CN1C(=O)Nc1ccn(C)c(=O)c1 [Compound 291, (S)-3-((S)-sec-butyl)-N-(1-methyl-2-oxo-1,2-dihydropyridin-4-yl)-2-oxo-1,2,3,5-tetrahydro-4H-benzo[e][1,4]diazepine-4-carboxamide]	0.05 µM
CC[C@H](C)[C@H]1C(=O)Nc2ccccc2CN1C(=O)Nc1cncc(OC)c1 [Compound 292, (S)-3-((S)-sec-butyl)-N-(5-methoxypyridin-3-yl)-2-oxo-1,2,3,5-tetrahydro-4H-benzo[e][1,4]diazepine-4-carboxamide]	0.05 µM
CC[C@H](C)[C@H]1C(=O)Nc2ccccc2CN1C(=O)NC1CCOCC1 [Compound 293, (S)-3-((S)-sec-butyl)-2-oxo-N-(tetrahydro-2H-pyran-4-yl)-1,2,3,5-tetrahydro-4H-benzo[e][1,4]diazepine-4-carboxamide]	0.55 µM
CC[C@H](C)[C@H]1C(=O)Nc2ccccc2CN1C(=O)N1CC[C@H](C(=O)NC)C1 [Compound 294, (S)-1-((S)-3-((S)-sec-butyl)-2-oxo-2,3,4,5-tetrahydro-1H-benzo[e][1,4]diazepine-4-carbonyl)-N-methylpyrrolidine-3-carboxamide]	2.32 µM
CC[C@H](C)[C@H]1C(=O)Nc2ccccc2CN1C(=O)N1CC[C@H](C(=O)N(C)C)C1 [Compound 295]	3.41 µM
CC[C@H](C)[C@H]1C(=O)Nc2ccccc2CN1C(=O)N1CC[C@H](C(N)=O)C1 [Compound 296, (S)-1-((S)-3-((S)-sec-butyl)-2-oxo-2,3,4,5-tetrahydro-1H-benzo[e][1,4]diazepine-4-carbonyl)pyrrolidine-3-carboxamide]	1.75 µM
